ChEMBL document CHEMBL6177968, “Development of sulfamoylbenzamide-based capsid assembly modulators for hepatitis B virus capsid assembly” (Eur J Med Chem, 2025)

Assays:
[1] = AUC (0 to infinity) in male mouse at 5 mg/kg, iv; format: ADME, organism-based; conditions: in vivo
Hepatitis B virus [2] = assay: Antiviral activity against HBV in human HepG2 cells expressing NTCP assessed as reduction in viral replication; format: functional, organism-based
Hepatitis B virus [3] = assay: Antiviral activity against HBV infected in human HepG2 cells expressing NTCP assessed as capsid associated HBV DNA level at 1 uM incubated for 6 days by Western blot analysis (reference value: 100 %); format: functional; conditions: time 6 day
[4] = Half life in male mouse at 5 mg/kg, iv; format: ADME, organism-based; conditions: in vivo
[5] = Cytotoxicity in human HepaRG cells assessed as reduction in cell viability; format: toxicity, cell-based
[6] = Oral bioavailability in male mouse at 5 mg/kg; format: ADME, organism-based; conditions: in vivo
Hepatitis B virus [7] = assay: Antiviral activity against HBV in human HepaRG cells assessed as reduction in viral replication; format: functional, organism-based
[8] = Cytotoxicity in CHO-K1 cells; format: toxicity, cell-based, Cricetulus griseus; conditions: Chinese hamster
Hepatitis B virus [9] = assay: Antiviral activity against HBV infected in human HepG2 cells expressing NTCP assessed as fold increase in intracellular capsid level at 1 uM incubated for 6 days by Western blot analysis relative to control; format: functional; conditions: time 6 day
Cytochrome P450 2D6 = Cytochrome P450 2D6 (Homo sapiens, UniProt P10635); assay: Inhibition of CYP2D6 in human liver microsome; format: ADME, microsomes
Sequence of Cytochrome P450 2D6 (P10635 whole entry): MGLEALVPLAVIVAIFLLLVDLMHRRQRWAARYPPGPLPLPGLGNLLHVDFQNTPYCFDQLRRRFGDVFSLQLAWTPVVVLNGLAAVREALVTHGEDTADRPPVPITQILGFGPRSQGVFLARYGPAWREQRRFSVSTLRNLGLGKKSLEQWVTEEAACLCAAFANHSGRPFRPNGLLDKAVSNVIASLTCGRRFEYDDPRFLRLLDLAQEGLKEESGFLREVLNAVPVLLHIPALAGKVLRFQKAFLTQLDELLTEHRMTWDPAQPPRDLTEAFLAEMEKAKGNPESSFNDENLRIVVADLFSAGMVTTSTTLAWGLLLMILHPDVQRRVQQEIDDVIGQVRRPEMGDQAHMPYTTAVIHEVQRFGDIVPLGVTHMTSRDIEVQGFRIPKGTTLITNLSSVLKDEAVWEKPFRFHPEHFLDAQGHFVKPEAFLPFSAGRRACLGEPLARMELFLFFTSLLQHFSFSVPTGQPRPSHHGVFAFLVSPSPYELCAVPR

[10] = Cytotoxicity in human HepG2-hNTCP cells assessed as reduction in cell viability; format: toxicity, cell-based
Hepatitis B virus [11] = assay: Antiviral activity against HBV infected in human HepG2 cells expressing NTCP assessed as viral DNA replication at 1 uM incubated for 6 days by Southern blot analysis (reference value: 100 %); format: functional; conditions: time 6 day
Cytochrome P450 3A4 = Cytochrome P450 3A4 (Homo sapiens, UniProt P08684); assay: Inhibition of CYP3A4 in human liver microsome; format: ADME, microsomes
Sequence of Cytochrome P450 3A4 (P08684 whole entry): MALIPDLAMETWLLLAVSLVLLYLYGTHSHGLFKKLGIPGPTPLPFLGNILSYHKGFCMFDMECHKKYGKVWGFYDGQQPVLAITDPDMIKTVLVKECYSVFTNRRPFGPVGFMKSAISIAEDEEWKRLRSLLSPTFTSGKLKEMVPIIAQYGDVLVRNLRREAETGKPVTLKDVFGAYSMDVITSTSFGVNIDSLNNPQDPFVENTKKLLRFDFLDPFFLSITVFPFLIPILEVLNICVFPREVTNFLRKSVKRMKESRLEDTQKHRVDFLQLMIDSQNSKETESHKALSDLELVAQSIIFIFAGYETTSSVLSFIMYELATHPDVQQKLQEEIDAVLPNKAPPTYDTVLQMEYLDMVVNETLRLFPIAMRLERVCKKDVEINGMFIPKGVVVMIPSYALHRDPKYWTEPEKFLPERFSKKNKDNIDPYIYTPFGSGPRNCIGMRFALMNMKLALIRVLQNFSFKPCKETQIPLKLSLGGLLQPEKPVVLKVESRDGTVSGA

[12] = Tmax in male mouse at 20 mg/kg, po; format: ADME, organism-based; conditions: in vivo
[13] = Cmax in male mouse at 20 mg/kg, po; format: ADME, organism-based; conditions: in vivo
[14] = Half life in male mouse at 20 mg/kg, iv; format: ADME, organism-based; conditions: in vivo
[15] = Half life in male mouse at 5 mg/kg, po; format: ADME, organism-based; conditions: in vivo
Hepatitis B virus [16] = assay: Antiviral activity against HBV infected in human HepG2 cells expressing NTCP assessed as ratio of capsid associated HBV DNA level at 1 uM incubated for 6 days by Western blot analysis (reference value: 100 %); format: functional; conditions: time 6 day
[17] = Plasma protein binding in mouse; format: ADME, cell-free; conditions: read-out: PPB (converted)
[18] = Cytotoxicity in African green monkey Vero cells; format: toxicity, cell-based, Chlorocebus sabaeus
[19] = Metabolic stability in mouse liver microsomes assessed as compound remaining measured after 30 mins; format: ADME, Microsome; conditions: read-out: Stability
[20] = Clearance in male mouse at 5 mg/kg, iv; format: ADME, organism-based; conditions: in vivo
[21] = Clearance in male mouse at 20 mg/kg, iv; format: ADME, organism-based; conditions: in vivo
[22] = Oral bioavailability in male mouse at 20 mg/kg; format: ADME, organism-based; conditions: in vivo
Hepatitis B virus [23] = assay: Antiviral activity against HBV infected in human HepG2 cells expressing NTCP assessed as fold reduction in capsid associated viral DNA level at 1 uM incubated for 6 days by Southern blot analysis relative to control; format: functional; conditions: time 6 day
Hepatitis B virus [24] = assay: Antiviral activity against HBV infected in human HepG2 cells expressing NTCP assessed as intracellular HBc level at 1 uM incubated for 6 days by Western blot analysis (reference value: 100 %); format: functional; conditions: time 6 day
[25] = Selectivity index, ratio of CC50 for cytotoxicity in human HepG2.2.15 cells assessed as reduction in cell viability to EC50 for antiviral activity against HBV in human HepG2.2.15 cells assessed as reduction in viral replication; format: toxicity, cell-based; conditions: read-out: Ratio CC50/EC50
Cytochrome P450 2C19 = Cytochrome P450 2C19 (Homo sapiens, UniProt P33261); assay: Inhibition of CYP2C19 in human liver microsome; format: ADME, microsomes
Sequence of Cytochrome P450 2C19 (P33261 whole entry): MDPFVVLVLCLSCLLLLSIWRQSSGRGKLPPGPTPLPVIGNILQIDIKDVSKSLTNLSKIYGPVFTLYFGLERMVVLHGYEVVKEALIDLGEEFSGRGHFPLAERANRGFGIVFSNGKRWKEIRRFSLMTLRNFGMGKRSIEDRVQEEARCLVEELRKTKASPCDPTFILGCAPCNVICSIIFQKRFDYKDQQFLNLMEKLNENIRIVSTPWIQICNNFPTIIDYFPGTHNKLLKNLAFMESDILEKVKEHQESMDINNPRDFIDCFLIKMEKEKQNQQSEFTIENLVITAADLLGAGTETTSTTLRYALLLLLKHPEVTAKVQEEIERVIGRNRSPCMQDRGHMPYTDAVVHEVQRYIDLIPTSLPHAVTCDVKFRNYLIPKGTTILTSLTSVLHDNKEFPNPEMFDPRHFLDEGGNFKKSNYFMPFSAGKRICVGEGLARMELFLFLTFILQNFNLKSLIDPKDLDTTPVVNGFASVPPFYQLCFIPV

[26] = AUClast in male mouse at 20 mg/kg, po; format: ADME, organism-based; conditions: in vivo
[27] = Volume of distribution at steady state in male mouse at 20 mg/kg, iv; format: ADME, organism-based; conditions: in vivo, read-out: Vdss
[28] = Metabolic stability in rat liver microsomes assessed as compound remaining measured after 30 mins; format: ADME, Microsome; conditions: read-out: Stability
[29] = AUClast in male mouse at 20 mg/kg, iv; format: ADME, organism-based; conditions: in vivo
Hepatitis B virus [30] = assay: Antiviral activity against HBV infected in human HepG2 cells expressing NTCP assessed as decrease in intracellular HBc level at 1 uM incubated for 6 days by indirect immunofluorescence staining based analysis; format: functional, organism-based; conditions: time 6.0 day
[31] = AUClast in male mouse at 5 mg/kg, po; format: ADME, organism-based; conditions: in vivo
[32] = Plasma protein binding in human; format: ADME, cell-free; conditions: read-out: PPB (converted)
[33] = Stability in human plasma assessed as compound remaining incubated for 4 hrs; format: ADME, cell-free; conditions: read-out: Stability
[34] = AUClast in male mouse at 5 mg/kg, iv; format: ADME, organism-based; conditions: in vivo
[35] = Selectivity index, ratio of CC50 for cytotoxicity in human HepG2-hNTCP cells assessed as reduction in cell viability to EC50 for antiviral activity against HBV in human HepG2-hNTCP cells assessed as reduction in viral replication; format: toxicity, cell-based; conditions: read-out: Ratio CC50/EC50
[36] = Cmax in male mouse at 5 mg/kg, po; format: ADME, organism-based; conditions: in vivo
[37] = AUC (0 to infinity) in male mouse at 5 mg/kg, po; format: ADME, organism-based; conditions: in vivo
[38] = Cytotoxicity in mouse NIH3T3 cells; format: toxicity, cell-based
[39] = AUC (0 to infinity) in male mouse at 20 mg/kg, iv; format: ADME, organism-based; conditions: in vivo
[40] = AUC (0 to infinity) in male mouse at 20 mg/kg, po; format: ADME, organism-based; conditions: in vivo
Cytochrome P450 2C9 = Cytochrome P450 2C9 (Homo sapiens, UniProt P11712); assay: Inhibition of CYP2C9 in human liver microsome; format: ADME, microsomes
Sequence of Cytochrome P450 2C9 (P11712 whole entry): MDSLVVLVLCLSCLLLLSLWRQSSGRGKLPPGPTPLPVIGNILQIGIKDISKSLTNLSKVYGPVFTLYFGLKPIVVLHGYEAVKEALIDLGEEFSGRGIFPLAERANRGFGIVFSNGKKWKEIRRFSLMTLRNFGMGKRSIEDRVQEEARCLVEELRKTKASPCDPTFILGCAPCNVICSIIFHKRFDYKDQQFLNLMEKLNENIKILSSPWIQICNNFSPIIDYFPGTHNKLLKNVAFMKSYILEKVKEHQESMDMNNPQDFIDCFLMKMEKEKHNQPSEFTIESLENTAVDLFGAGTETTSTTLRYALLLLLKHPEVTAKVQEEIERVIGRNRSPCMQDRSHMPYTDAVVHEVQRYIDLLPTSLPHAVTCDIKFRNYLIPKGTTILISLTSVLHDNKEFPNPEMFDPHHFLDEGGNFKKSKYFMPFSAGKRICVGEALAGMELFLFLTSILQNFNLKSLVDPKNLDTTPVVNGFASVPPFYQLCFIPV

[41] = Half life in male mouse at 20 mg/kg, po; format: ADME, organism-based; conditions: in vivo
[42] = Cytotoxicity in mouse L929 cells; format: toxicity, cell-based
[43] = Selectivity index, ratio of CC50 for cytotoxicity in human HepaRG cells assessed as reduction in cell viability to EC50 for antiviral activity against HBV in human HepaRG cells assessed as reduction in viral replication; format: toxicity, cell-based; conditions: read-out: Ratio CC50/EC50
[44] = target: Voltage-gated inwardly rectifying potassium channel KCNH2 (Homo sapiens, UniProt Q12809); assay: Inhibition of human ERG; format: toxicity
Sequence of Voltage-gated inwardly rectifying potassium channel KCNH2 (Q12809 whole entry): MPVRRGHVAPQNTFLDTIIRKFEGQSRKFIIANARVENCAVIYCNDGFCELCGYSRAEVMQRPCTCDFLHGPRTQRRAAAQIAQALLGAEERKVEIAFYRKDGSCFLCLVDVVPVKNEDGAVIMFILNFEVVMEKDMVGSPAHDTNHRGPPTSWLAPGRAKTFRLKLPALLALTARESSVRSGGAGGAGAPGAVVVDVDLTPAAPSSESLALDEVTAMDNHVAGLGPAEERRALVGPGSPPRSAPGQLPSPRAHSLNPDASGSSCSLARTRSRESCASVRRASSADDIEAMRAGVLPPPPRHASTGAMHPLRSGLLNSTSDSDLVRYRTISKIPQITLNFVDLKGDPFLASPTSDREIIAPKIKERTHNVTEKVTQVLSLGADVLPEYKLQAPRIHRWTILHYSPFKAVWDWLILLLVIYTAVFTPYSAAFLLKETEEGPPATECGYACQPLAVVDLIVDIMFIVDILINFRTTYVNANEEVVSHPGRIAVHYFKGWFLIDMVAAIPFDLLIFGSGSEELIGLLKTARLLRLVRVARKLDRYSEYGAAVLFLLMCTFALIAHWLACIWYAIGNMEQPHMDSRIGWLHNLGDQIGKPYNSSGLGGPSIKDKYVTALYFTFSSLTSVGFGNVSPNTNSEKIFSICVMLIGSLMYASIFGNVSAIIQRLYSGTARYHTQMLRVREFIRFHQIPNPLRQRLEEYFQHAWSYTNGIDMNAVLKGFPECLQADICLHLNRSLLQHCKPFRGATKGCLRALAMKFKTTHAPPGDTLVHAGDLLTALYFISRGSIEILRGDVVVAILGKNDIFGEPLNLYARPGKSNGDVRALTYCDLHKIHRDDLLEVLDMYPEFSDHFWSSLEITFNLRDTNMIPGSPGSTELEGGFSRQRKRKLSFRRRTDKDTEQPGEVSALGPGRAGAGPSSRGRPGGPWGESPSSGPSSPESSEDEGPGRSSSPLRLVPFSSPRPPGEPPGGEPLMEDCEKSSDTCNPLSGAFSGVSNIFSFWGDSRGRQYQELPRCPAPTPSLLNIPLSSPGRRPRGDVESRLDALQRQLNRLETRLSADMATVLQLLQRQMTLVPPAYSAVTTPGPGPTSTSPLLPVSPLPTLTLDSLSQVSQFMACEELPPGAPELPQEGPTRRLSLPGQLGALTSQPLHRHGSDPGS

[45] = Tmax in male mouse at 5 mg/kg, po; format: ADME, organism-based; conditions: in vivo
[46] = Cytotoxicity in human HepG2.2.15 cells assessed as reduction in cell viability; format: toxicity, cell-based, HepG2 2.2.15
[47] = Cytotoxicity in HFL1 cells; format: toxicity, cell-based; conditions: human
[48] = Stability in mouse plasma assessed as compound remaining incubated for 4 hrs; format: ADME, cell-free; conditions: read-out: Stability
[49] = Volume of distribution at steady state in male mouse at 5 mg/kg, iv; format: ADME, organism-based; conditions: in vivo, read-out: Vdss
Hepatitis B virus [50] = assay: Antiviral activity against HBV in human HepG2.2.15 cells assessed as reduction in viral replication incubated for 5 days by real-time PCR analysis; format: functional, organism-based; conditions: HepG2.2.15, 120 h
HepG2 [51] = assay: Effect on viral ssDNA level in human HepG2 cells expressing NTCP cells infected with HBV at 1 uM incubated for 6 days by Southern blot analysis; format: functional, cell-based; conditions: time 6.0 day
Hepatitis B virus [52] = assay: Antiviral activity against HBV infected in human HepG2 cells expressing NTCP assessed as capsid level at 1 uM incubated for 6 days by Western blot analysis (reference value: 100 %); format: functional; conditions: time 6 day
Cytochrome P450 1A2 = target: T1, Cytochrome P450 1A2 (Homo sapiens, UniProt P05177); assay: Inhibition of CYP1A2 in human liver microsome; format: ADME, microsomes
T1 sequence (P05177 whole entry): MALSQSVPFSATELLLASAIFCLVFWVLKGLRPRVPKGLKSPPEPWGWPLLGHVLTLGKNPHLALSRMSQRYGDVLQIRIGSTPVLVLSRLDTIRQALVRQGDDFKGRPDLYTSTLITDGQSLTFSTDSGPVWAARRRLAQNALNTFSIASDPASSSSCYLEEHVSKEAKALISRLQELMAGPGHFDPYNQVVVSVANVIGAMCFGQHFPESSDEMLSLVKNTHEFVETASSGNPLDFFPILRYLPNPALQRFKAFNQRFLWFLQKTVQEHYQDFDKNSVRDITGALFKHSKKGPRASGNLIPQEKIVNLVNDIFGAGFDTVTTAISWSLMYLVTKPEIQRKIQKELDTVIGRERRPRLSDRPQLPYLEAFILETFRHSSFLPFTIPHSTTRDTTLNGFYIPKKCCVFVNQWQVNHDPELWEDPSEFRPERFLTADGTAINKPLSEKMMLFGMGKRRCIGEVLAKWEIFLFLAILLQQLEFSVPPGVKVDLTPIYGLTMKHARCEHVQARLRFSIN

HepG2 [53] = assay: Effect on viral dslDNA level in human HepG2 cells expressing NTCP infected with HBV at 1 uM incubated for 6 days by Southern blot analysis; format: functional, cell-based; conditions: time 6.0 day
[54] = Metabolic stability in human liver microsomes assessed as compound remaining measured after 30 mins; format: ADME, Microsome; conditions: read-out: Stability
HepG2 [55] = assay: Effect on viral rcDNA level in human HepG2 cells expressing NTCP infected with HBV at 1 uM incubated for 6 days by Southern blot analysis; format: functional, cell-based; conditions: time 6.0 day

Nc1cc(F)c(S(=O)(=O)N[C@H]2CNC2=O)cc1C(=O)Nc1ccc(F)c(C(F)F)c1
AUC(0-inf) [1]: 2.4 µg·h/mL
EC50 (Hepatitis B virus [2]): 0.11 µM
Activity (Hepatitis B virus [3]): 19%
half-life [4]: 2.37 h
CC50 [5]: > 100 µM
bioavailability [6]: 26%
EC50 (Hepatitis B virus [7]): 0.55 µM
IC50 [8]: > 100 µM
fold change (FC) (Hepatitis B virus [9]): ~2
IC50 (Cytochrome P450 2D6): 29.9 µM
CC50 [10]: > 100 µM
Activity (Hepatitis B virus [11]): 13%
IC50 (Cytochrome P450 3A4): 26.1 µM
Tmax [12]: 0.33 h
Cmax [13]: 0.9 µg/mL
half-life [14]: 5.15 h
half-life [15]: 2.8 h
Ratio (Hepatitis B virus [16]): 10%
fraction unbound [17]: 0.0555
IC50 [18]: > 100 µM
remaining at 0.5 h [19]: 49%
clearance [20]: 2.11 L/h/kg
clearance [21]: 3.03 L/h/kg
bioavailability [22]: 21.9%
fold change (FC) (Hepatitis B virus [23]): 8
Activity (Hepatitis B virus [24]): 129%
selectivity ratio [25]: 1420
IC50 (Cytochrome P450 2C19): 44.5 µM
AUC(0-t) [26]: 1.51 µg·h/mL
Vd [27]: 4.16 L/kg
remaining at 0.5 h [28]: 51%
AUC(0-t) [29]: 6.88 µg·h/mL
Activity (Hepatitis B virus [30]): Active; Compound Modestly Decreased Hbc Level
AUC(0-t) [31]: 0.62 µg·h/mL
fraction unbound [32]: 0.115
remaining at 4 h [33]: 85.4%
AUC(0-t) [34]: 2.39 µg·h/mL
selectivity ratio [35]: > 909
Cmax [36]: 0.28 µg/mL
AUC(0-inf) [37]: 0.62 µg·h/mL
IC50 [38]: > 100 µM
AUC(0-inf) [39]: 6.95 µg·h/mL
AUC(0-inf) [40]: 1.6 µg·h/mL
IC50 (Cytochrome P450 2C9): 31.1 µM
half-life [41]: 5.52 h
IC50 [42]: > 100 µM
selectivity ratio [43]: > 182
IC50 [44]: > 10 µM
Tmax [45]: 0.5 h
CC50 [46]: 173 µM
IC50 [47]: > 100 µM
remaining at 4 h [48]: 43.2%
Vd [49]: 2.95 L/kg
EC50 (Hepatitis B virus [50]): 0.12 µM
Activity (HepG2 [51]): No effect
Activity (Hepatitis B virus [52]): 183%
IC50 (Cytochrome P450 1A2): > 100 µM
Activity (HepG2 [53]): No effect
remaining at 0.5 h [54]: 66.9%
Activity (HepG2 [55]): No effect
